Test results: ChEMBL document CHEMBL5034019, “Discovery of the Next-Generation Pan-TRK Kinase Inhibitors for the Treatment of Cancer” (J Med Chem, 2021)
The source made the active and inactive calls. The calls are words filed in the database; no cut-off is given here.

What was measured:
Homo sapiens = species on record: Homo sapiens; experiment: Inhibition of recombinant […] human B-Raf V599E mutant (416 to end residues) assessed as residual activity at 0.5 uM using myelin basic protein as substrate incubated for 40 mins in presence of [gamma-33ATP] by scintillation counting based radiometry assay relative to control
[1] = system: Mast/stem cell growth factor receptor Kit (Homo sapiens), P10721 [V654A]; experiment: Inhibition of recombinant human C-Kit V654A mutant (544 to end residues) assessed as residual activity at 0.5 uM poly(Glu, Tyr) 4:1 as substrate incubated 40 mins in presence of [gamma-33ATP] by scintillation counting based radiometry assay relative to control
[2] = system: RAF proto-oncogene serine/threonine-protein kinase (Homo sapiens), P04049 [Y340D,Y341D]; experiment: Inhibition of recombinant human C-Raf Y340D/Y341D double mutant (306 to end residues) assessed as residual activity at 0.5 uM poly(Glu, Tyr) 4:1 as substrate incubated 40 mins in presence of [gamma-33ATP] by scintillation counting based radiometry assay relative to control
[3] = molecular target: Epidermal growth factor receptor (Homo sapiens) (UniProt P00533); experiment: Inhibition of recombinant human EGFR (696 to end residues) assessed as residual activity at 0.5 uM using poly(Glu, Tyr) 4:1 as substrate at 40 mins in presence of [gamma-33ATP] by scintillation counting based radiometry assay relative to control
[4] = system: Epidermal growth factor receptor (Homo sapiens), P00533 [L858R]; experiment: Inhibition of recombinant human EGFR L858R mutant (696 to end residues) assessed as residual activity at 0.5 uM using poly(Glu, Tyr) 4:1 as substrate at 40 mins in presence of [gamma-33ATP] by scintillation counting based radiometry assay relative to control
[5] = system: Hepatocyte growth factor receptor (Homo sapiens), P08581 [M1268T]; experiment: Inhibition of recombinant human Met M1268T mutant (974 to end residues) assessed as residual activity at 0.5 uM using KKKGQEEEYVFIE as substrate incubated for 40 mins in presence of [gamma-33P]-ATP by scintillation counting method relative to control
[6] = system: Proto-oncogene tyrosine-protein kinase receptor Ret (Homo sapiens), P07949 [V804M]; experiment: Inhibition of recombinant human Ret V804M mutant (658 to end residues) assessed as residual activity at 0.5 uM using […] as substrate incubated for 40 mins in presence of [gamma33P]ATP by scintillation counting based radiometry assay relative to control
[7] = molecular target: Tyrosine-protein kinase JAK1 (Homo sapiens) (UniProt P23458); experiment: Inhibition of human JAK1 (866 to end residues) assessed as residual activity at 0.5 uM using GEEPLYWSFPAKKK as substrate after 40 mins by [gamma-33ATP] radiometric assay relative to control
[8] = Clearance in female Sprague-Dawley rat at 2 mg/kg, iv measured up to 24 hrs by LC/MS/MS analysis; format: ADME, organism-based; conditions: in vivo
[9] = AUC (0 to t) in male Sprague-Dawley rat at 2 mg/kg, iv measured up to 24 hrs by LC-MS/MS analysis; format: ADME, organism-based; design: route intravenous, dose 2 mg/kg, time <=24; conditions: in vivo
[10] = Tmax in male Sprague-Dawley rat at 10 mg/kg, po measured up to 24 hrs by LC-MS analysis; format: ADME, organism-based; conditions: in vivo
[11] = AUC (0 to t) in male Sprague-Dawley rat at 10 mg/kg, po measured up to 24 hrs by LC-MS/MS analysis; format: ADME, organism-based; design: route oral, dose 10 mg/kg, time <=24; conditions: in vivo
[12] = Toxicity in […] xenografted with mouse BaF3 cells transfected with ETV6-NTRK3 assessed as weight loss at 20 mg/kg, po administered once daily for 21 days and measured twice weekly; format: organism-based; conditions: in vivo, 504 h, time 21 day
BaF3 = experiment: Antitumor activity against mouse BaF3 cells transfected with LMNA-NTRK1 xenografted in mouse assessed as tumor growth inhibition at 5 to 20 mg/kg, po administered once daily for 21 days and measured twice weekly; conditions: dose 5-20 mg/kg, time 21.0 day
KM12 = experiment: Antiproliferative activity against TrK fused human KM12 cells; format: functional, cell-based
[13] = Half life in Sprague-Dawley rat at 3 mg/kg measured up to 24 hrs by LC-MS/MS analysis; format: ADME, organism-based; conditions: in vivo
[14] = Toxicity in […] xenografted with mouse BaF3 cells transfected with LMNA-NTRK1-G595R mutant assessed as death at 100 mg/kg, po administered once daily for 21 days and measured twice weekly; format: organism-based; conditions: in vivo, 504 h, time 21 day

Proto-oncogene tyrosine-protein kinase receptor Ret (Homo sapiens), P07949 [V804M], sequence (P07949 whole entry V804M): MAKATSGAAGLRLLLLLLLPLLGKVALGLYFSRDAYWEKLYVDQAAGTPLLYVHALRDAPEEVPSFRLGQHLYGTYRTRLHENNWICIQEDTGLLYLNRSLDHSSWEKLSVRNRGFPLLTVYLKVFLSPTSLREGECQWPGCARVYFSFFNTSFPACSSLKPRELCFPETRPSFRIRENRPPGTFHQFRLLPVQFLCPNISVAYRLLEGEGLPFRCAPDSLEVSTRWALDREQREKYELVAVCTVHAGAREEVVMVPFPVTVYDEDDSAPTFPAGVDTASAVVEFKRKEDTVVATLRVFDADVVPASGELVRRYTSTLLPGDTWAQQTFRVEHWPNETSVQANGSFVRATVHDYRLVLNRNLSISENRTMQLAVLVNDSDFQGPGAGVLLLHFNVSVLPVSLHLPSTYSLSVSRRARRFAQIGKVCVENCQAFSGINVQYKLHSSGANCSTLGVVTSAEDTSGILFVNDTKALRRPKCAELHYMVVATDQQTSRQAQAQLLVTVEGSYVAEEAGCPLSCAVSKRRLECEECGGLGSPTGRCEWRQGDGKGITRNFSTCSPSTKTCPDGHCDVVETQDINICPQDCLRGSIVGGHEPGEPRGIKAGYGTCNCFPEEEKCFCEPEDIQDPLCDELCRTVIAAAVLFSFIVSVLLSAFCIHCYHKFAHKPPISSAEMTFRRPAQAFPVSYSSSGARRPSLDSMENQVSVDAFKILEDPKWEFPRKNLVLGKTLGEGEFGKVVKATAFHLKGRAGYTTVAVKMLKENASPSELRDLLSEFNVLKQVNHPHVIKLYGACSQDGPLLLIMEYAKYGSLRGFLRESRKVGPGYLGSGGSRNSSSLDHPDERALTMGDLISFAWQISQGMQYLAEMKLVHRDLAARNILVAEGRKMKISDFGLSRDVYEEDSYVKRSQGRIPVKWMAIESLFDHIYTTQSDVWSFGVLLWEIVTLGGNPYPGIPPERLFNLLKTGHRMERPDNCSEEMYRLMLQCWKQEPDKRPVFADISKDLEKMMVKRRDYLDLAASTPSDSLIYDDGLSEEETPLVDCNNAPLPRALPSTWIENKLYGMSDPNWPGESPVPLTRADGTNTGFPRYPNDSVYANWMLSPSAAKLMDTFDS
Mast/stem cell growth factor receptor Kit (Homo sapiens), P10721 [V654A], sequence (P10721 whole entry V654A): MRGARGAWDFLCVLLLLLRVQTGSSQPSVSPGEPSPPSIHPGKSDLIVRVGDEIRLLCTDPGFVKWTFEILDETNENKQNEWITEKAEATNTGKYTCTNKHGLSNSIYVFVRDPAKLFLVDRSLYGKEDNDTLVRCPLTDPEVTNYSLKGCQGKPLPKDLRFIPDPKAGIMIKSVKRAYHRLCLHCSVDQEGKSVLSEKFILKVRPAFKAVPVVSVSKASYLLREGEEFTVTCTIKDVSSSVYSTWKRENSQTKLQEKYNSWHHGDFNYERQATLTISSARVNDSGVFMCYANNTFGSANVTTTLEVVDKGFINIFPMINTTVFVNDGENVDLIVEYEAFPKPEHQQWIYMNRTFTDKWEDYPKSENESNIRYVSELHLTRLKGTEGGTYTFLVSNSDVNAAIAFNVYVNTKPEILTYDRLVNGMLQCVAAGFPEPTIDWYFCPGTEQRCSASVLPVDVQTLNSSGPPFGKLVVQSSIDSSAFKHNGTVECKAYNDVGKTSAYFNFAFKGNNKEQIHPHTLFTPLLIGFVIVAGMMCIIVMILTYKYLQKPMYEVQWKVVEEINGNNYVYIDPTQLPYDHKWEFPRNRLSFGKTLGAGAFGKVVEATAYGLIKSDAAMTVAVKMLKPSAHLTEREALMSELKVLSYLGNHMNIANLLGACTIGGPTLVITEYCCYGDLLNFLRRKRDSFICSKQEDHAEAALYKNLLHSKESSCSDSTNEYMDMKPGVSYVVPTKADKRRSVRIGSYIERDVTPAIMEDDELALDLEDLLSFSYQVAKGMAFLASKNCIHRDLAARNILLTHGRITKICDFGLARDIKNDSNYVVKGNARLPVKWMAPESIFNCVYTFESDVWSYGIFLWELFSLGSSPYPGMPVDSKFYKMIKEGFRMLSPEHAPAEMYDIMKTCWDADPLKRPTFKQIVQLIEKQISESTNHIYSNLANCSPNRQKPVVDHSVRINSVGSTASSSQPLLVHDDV
Tyrosine-protein kinase JAK1 (Homo sapiens), sequence (P23458 whole entry): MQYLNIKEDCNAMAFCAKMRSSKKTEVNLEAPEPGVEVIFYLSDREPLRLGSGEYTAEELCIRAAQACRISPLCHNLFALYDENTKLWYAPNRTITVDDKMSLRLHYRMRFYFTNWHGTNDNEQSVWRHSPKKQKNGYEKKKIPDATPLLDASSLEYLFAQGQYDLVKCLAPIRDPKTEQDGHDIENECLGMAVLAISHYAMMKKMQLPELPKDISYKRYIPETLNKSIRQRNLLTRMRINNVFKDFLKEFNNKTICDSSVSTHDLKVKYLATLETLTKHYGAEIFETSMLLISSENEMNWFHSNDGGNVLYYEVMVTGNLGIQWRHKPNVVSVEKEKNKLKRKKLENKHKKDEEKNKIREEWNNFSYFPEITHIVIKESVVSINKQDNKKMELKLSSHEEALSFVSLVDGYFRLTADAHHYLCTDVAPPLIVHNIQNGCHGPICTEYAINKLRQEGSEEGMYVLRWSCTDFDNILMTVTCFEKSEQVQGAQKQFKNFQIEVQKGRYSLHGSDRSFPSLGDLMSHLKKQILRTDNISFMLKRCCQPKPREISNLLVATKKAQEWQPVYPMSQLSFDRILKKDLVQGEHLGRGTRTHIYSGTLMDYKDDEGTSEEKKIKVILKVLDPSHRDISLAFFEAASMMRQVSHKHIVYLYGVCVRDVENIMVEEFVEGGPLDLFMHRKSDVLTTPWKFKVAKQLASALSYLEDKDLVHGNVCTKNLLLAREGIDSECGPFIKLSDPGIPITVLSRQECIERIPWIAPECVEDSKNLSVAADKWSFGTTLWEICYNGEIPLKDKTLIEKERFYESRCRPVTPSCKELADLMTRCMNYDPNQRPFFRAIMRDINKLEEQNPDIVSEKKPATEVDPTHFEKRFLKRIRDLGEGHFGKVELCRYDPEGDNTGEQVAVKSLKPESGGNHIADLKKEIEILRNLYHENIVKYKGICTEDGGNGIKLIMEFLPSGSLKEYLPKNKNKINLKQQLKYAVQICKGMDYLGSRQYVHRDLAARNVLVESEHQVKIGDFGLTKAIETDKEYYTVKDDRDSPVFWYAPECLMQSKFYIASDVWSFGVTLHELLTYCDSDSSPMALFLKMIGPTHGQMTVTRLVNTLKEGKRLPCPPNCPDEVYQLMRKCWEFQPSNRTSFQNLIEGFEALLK

Row | Compound | Activity (Homo sapiens) [%] | Activity [1] [%] | Activity [2] [%] | Activity [3] [%] | Activity [4] [%] | Activity [5] [%] | Activity [6] [%] | Activity [7] [%] | clearance [8] [mL/min/kg] | AUC(0-t) at 24 h [9] [µM·h] | Tmax [10] [min] | AUC(0-t) at 24 h [11] [µM·h] | Activity [12] | Activity (BaF3) | IC50 (KM12) [nM] | half-life [13] [min] | Activity [14]
1 | O=C1NC2(CC2)COc2ncc(F)cc2[C@H]2COCCN2c2ccn3ncc1c3n2 | 87 | 105 | 103 | 108 | 91 | 86 | 54 | 91 | 8.19 | 4.19 | 40 | 11.7 | Toxic | Active |  |  | 
2 | C[C@@H]1CCc2ncc(F)cc2[C@H]2CCCN2c2ccn3ncc(c3n2)C(=O)N1 [SELITRECTINIB] |  |  |  |  |  |  |  |  |  |  |  |  |  |  | ≤ 5 | 72 | Toxic
